# Data as given in PubChem BioAssay (NCI).
#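 96-well plates; 48 h exposure; 5 concentrations. Endpoints by linear interpolation between flanking doses. Not reached: highest tested concentration assigned. GI50 marks 50% less growth. Definition used: TGI = concentration required for complete inhibition of growth.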
# Tests used:
# Assay in all cases: DTP human tumour cell line panel, 48 h
# 786-0 renal = test system: 786-0 renal
# A549 NSCLC = test system: A549 NSCLC
# ACHN renal = test system: ACHN renal
# BT-549 breast = test system: BT-549 breast
# CAKI-1 renal = test system: CAKI-1 renal
# CCRF-CEM leukemia = test system: CCRF-CEM leukemia
# COLO 205 colon = test system: COLO 205 colon
# EKVX NSCLC = test system: EKVX NSCLC
# HCC-2998 colon = test system: HCC-2998 colon
# HCT-116 colon = test system: HCT-116 colon
# HCT-15 colon = test system: HCT-15 colon
# HL-60(TB) leukemia = test system: HL-60(TB) leukemia
# HOP-62 NSCLC = test system: HOP-62 NSCLC
# HOP-92 NSCLC = test system: HOP-92 NSCLC
# HS 578T breast = test system: HS 578T breast
# HT29 colon = test system: HT29 colon
# IGROV1 ovarian = test system: IGROV1 ovarian
# K-562 leukemia = test system: K-562 leukemia
# KM12 colon = test system: KM12 colon
# LOX IMVI melanoma = test system: LOX IMVI melanoma
# M14 melanoma = test system: M14 melanoma
# MCF7 breast = test system: MCF7 breast
# MDA-MB-231 breast = test system: MDA-MB-231 breast
# MDA-MB-435 = test system: MDA-MB-435
# NCI-H226 lung = test system: NCI-H226 lung
# NCI-H23 lung = test system: NCI-H23 lung
# NCI-H460 lung = test system: NCI-H460 lung
# NCI-H522 lung = test system: NCI-H522 lung
# NCI/ADR-RES ovarian = test system: NCI/ADR-RES ovarian
# OVCAR-3 ovarian = test system: OVCAR-3 ovarian
# OVCAR-5 ovarian = test system: OVCAR-5 ovarian
# OVCAR-8 ovarian = test system: OVCAR-8 ovarian
# PC-3 prostate = test system: PC-3 prostate
# RXF 393 renal = test system: RXF 393 renal
# SF-268 CNS = test system: SF-268 CNS
# SF-295 CNS = test system: SF-295 CNS
# SK-MEL-2 melanoma = test system: SK-MEL-2 melanoma
# SK-MEL-28 melanoma = test system: SK-MEL-28 melanoma
# SK-MEL-5 melanoma = test system: SK-MEL-5 melanoma
# SN12C renal = test system: SN12C renal
# SNB-19 CNS = test system: SNB-19 CNS
# SW-620 colon = test system: SW-620 colon
# T-47D breast = test system: T-47D breast
# TK-10 renal = test system: TK-10 renal
# U251 CNS = test system: U251 CNS
# UACC-257 melanoma = test system: UACC-257 melanoma
# UACC-62 melanoma = test system: UACC-62 melanoma
# UO-31 renal = test system: UO-31 renal
# A498 renal = test system: A498 renal
# DU-145 prostate = test system: DU-145 prostate
# MALME-3M melanoma = test system: MALME-3M melanoma
# SF-539 CNS = test system: SF-539 CNS
# SK-OV-3 ovarian = test system: SK-OV-3 ovarian
# SNB-75 CNS = test system: SNB-75 CNS
# MOLT-4 leukemia = test system: MOLT-4 leukemia
# OVCAR-4 ovarian = test system: OVCAR-4 ovarian
# RPMI-8226 leukemia = test system: RPMI-8226 leukemia
smiles,measurement,setting,value
O=C(NNC(=O)C1CCN(S(=O)(=O)c2ccc(-c3ccccc3)cc2)CC1)c1ccc(C(F)(F)F)cc1,GI50,786-0 renal,7.21 µM
same,TGI,786-0 renal,34.1 µM
same,GI50,A549 NSCLC,> 50 µM
same,TGI,A549 NSCLC,> 50 µM
same,GI50,ACHN renal,> 50 µM
same,TGI,ACHN renal,> 50 µM
same,GI50,BT-549 breast,44.1 µM
same,TGI,BT-549 breast,> 50 µM
same,GI50,CAKI-1 renal,> 50 µM
same,TGI,CAKI-1 renal,> 50 µM
same,GI50,CCRF-CEM leukemia,> 50 µM
same,TGI,CCRF-CEM leukemia,> 50 µM
same,GI50,COLO 205 colon,> 50 µM
same,TGI,COLO 205 colon,> 50 µM
same,GI50,EKVX NSCLC,> 50 µM
same,TGI,EKVX NSCLC,> 50 µM
same,GI50,HCC-2998 colon,20.6 µM
same,TGI,HCC-2998 colon,> 50 µM
same,GI50,HCT-116 colon,4.77 µM
same,TGI,HCT-116 colon,13.2 µM
same,GI50,HCT-15 colon,> 50 µM
same,TGI,HCT-15 colon,> 50 µM
same,GI50,HL-60(TB) leukemia,> 50 µM
same,TGI,HL-60(TB) leukemia,> 50 µM
same,GI50,HOP-62 NSCLC,5.46 µM
same,TGI,HOP-62 NSCLC,16.5 µM
same,GI50,HOP-92 NSCLC,2.89 µM
same,TGI,HOP-92 NSCLC,> 50 µM
same,GI50,HS 578T breast,38.3 µM
same,TGI,HS 578T breast,> 50 µM
same,GI50,HT29 colon,> 50 µM
same,TGI,HT29 colon,> 50 µM
same,GI50,IGROV1 ovarian,> 50 µM
same,TGI,IGROV1 ovarian,> 50 µM
same,GI50,K-562 leukemia,> 50 µM
same,TGI,K-562 leukemia,> 50 µM
same,GI50,KM12 colon,> 50 µM
same,TGI,KM12 colon,> 50 µM
same,GI50,LOX IMVI melanoma,> 50 µM
same,TGI,LOX IMVI melanoma,> 50 µM
same,GI50,M14 melanoma,15.9 µM
same,TGI,M14 melanoma,> 50 µM
same,GI50,MCF7 breast,> 50 µM
same,TGI,MCF7 breast,> 50 µM
same,GI50,MDA-MB-231 breast,1.58 µM
same,TGI,MDA-MB-231 breast,34.9 µM
same,GI50,MDA-MB-435,> 50 µM
same,TGI,MDA-MB-435,> 50 µM
same,GI50,NCI-H226 lung,14.6 µM
same,TGI,NCI-H226 lung,> 50 µM
same,GI50,NCI-H23 lung,14.1 µM
same,TGI,NCI-H23 lung,> 50 µM
same,GI50,NCI-H460 lung,> 50 µM
same,TGI,NCI-H460 lung,> 50 µM
same,GI50,NCI-H522 lung,> 50 µM
same,TGI,NCI-H522 lung,> 50 µM
same,GI50,NCI/ADR-RES ovarian,> 50 µM
same,TGI,NCI/ADR-RES ovarian,> 50 µM
same,GI50,OVCAR-3 ovarian,> 50 µM
same,TGI,OVCAR-3 ovarian,> 50 µM
same,GI50,OVCAR-5 ovarian,> 50 µM
same,TGI,OVCAR-5 ovarian,> 50 µM
same,GI50,OVCAR-8 ovarian,22 µM
same,TGI,OVCAR-8 ovarian,> 50 µM
same,GI50,PC-3 prostate,> 50 µM
same,TGI,PC-3 prostate,> 50 µM
same,GI50,RXF 393 renal,20.3 µM
same,TGI,RXF 393 renal,> 50 µM
same,GI50,SF-268 CNS,> 50 µM
same,TGI,SF-268 CNS,> 50 µM
same,GI50,SF-295 CNS,> 50 µM
same,TGI,SF-295 CNS,> 50 µM
same,GI50,SK-MEL-2 melanoma,> 50 µM
same,TGI,SK-MEL-2 melanoma,> 50 µM
same,GI50,SK-MEL-28 melanoma,> 50 µM
same,TGI,SK-MEL-28 melanoma,> 50 µM
same,GI50,SK-MEL-5 melanoma,> 50 µM
same,TGI,SK-MEL-5 melanoma,> 50 µM
same,GI50,SN12C renal,21.4 µM
same,TGI,SN12C renal,> 50 µM
same,GI50,SNB-19 CNS,15.4 µM
same,TGI,SNB-19 CNS,> 50 µM
same,GI50,SW-620 colon,> 50 µM
same,TGI,SW-620 colon,> 50 µM
same,GI50,T-47D breast,3.99 µM
same,TGI,T-47D breast,> 50 µM
same,GI50,TK-10 renal,20.8 µM
same,TGI,TK-10 renal,> 50 µM
same,GI50,U251 CNS,11.8 µM
same,TGI,U251 CNS,> 50 µM
same,GI50,UACC-257 melanoma,> 50 µM
same,TGI,UACC-257 melanoma,> 50 µM
same,GI50,UACC-62 melanoma,> 50 µM
same,TGI,UACC-62 melanoma,> 50 µM
same,GI50,UO-31 renal,> 50 µM
same,TGI,UO-31 renal,> 50 µM
O=C(CSCC(=O)N/N=C/c1cccc(C(F)(F)F)c1)N/N=C/c1cccc(C(F)(F)F)c1,TGI,A498 renal,> 100 µM
same,TGI,ACHN renal,> 100 µM
same,TGI,BT-549 breast,> 100 µM
same,TGI,CAKI-1 renal,> 100 µM
same,TGI,DU-145 prostate,> 100 µM
same,TGI,EKVX NSCLC,> 100 µM
same,TGI,HCC-2998 colon,> 100 µM
same,TGI,HCT-15 colon,> 100 µM
same,TGI,HL-60(TB) leukemia,> 100 µM
same,TGI,HOP-62 NSCLC,> 100 µM
same,TGI,HOP-92 NSCLC,> 100 µM
same,TGI,HS 578T breast,> 100 µM
same,TGI,HT29 colon,> 100 µM
same,TGI,IGROV1 ovarian,> 100 µM
same,TGI,K-562 leukemia,> 100 µM
same,TGI,LOX IMVI melanoma,> 100 µM
same,TGI,M14 melanoma,> 100 µM
same,TGI,MALME-3M melanoma,> 100 µM
same,TGI,MCF7 breast,> 100 µM
same,TGI,MDA-MB-435,> 100 µM
same,TGI,NCI-H226 lung,> 100 µM
same,TGI,NCI-H23 lung,> 100 µM
same,TGI,NCI-H522 lung,> 100 µM
same,TGI,NCI/ADR-RES ovarian,> 100 µM
same,TGI,OVCAR-5 ovarian,> 100 µM
same,TGI,PC-3 prostate,> 100 µM
same,TGI,RXF 393 renal,> 100 µM
same,TGI,SF-268 CNS,> 100 µM
same,TGI,SF-295 CNS,> 100 µM
same,TGI,SF-539 CNS,> 100 µM
same,TGI,SK-MEL-2 melanoma,> 100 µM
same,TGI,SK-MEL-28 melanoma,> 100 µM
same,TGI,SK-MEL-5 melanoma,> 100 µM
same,TGI,SK-OV-3 ovarian,> 100 µM
same,TGI,SNB-19 CNS,> 100 µM
same,TGI,SNB-75 CNS,> 100 µM
same,TGI,T-47D breast,> 100 µM
same,TGI,TK-10 renal,> 100 µM
same,TGI,UACC-257 melanoma,> 100 µM
same,TGI,UACC-62 melanoma,> 100 µM
same,TGI,UO-31 renal,> 100 µM
CSc1nc(-c2ccccc2)c(C#N)c(=O)[nH]1,TGI,786-0 renal,> 100 µM
same,TGI,A498 renal,> 100 µM
same,TGI,A549 NSCLC,> 100 µM
same,TGI,ACHN renal,> 100 µM
same,TGI,BT-549 breast,> 100 µM
same,TGI,CAKI-1 renal,> 100 µM
same,TGI,CCRF-CEM leukemia,> 100 µM
same,TGI,COLO 205 colon,> 100 µM
same,TGI,DU-145 prostate,> 100 µM
same,TGI,EKVX NSCLC,> 100 µM
same,TGI,HCC-2998 colon,> 100 µM
same,TGI,HCT-116 colon,> 100 µM
same,TGI,HCT-15 colon,> 100 µM
same,TGI,HL-60(TB) leukemia,> 100 µM
same,TGI,HOP-62 NSCLC,> 100 µM
same,TGI,HOP-92 NSCLC,> 100 µM
same,TGI,HS 578T breast,> 100 µM
same,TGI,HT29 colon,> 100 µM
same,TGI,IGROV1 ovarian,> 100 µM
same,TGI,K-562 leukemia,> 100 µM
same,TGI,KM12 colon,> 100 µM
same,TGI,M14 melanoma,> 100 µM
same,TGI,MCF7 breast,> 100 µM
same,TGI,MDA-MB-231 breast,> 100 µM
same,TGI,MDA-MB-435,> 100 µM
same,TGI,MOLT-4 leukemia,> 100 µM
same,TGI,NCI-H226 lung,> 100 µM
same,TGI,NCI-H23 lung,> 100 µM
same,TGI,NCI-H460 lung,> 100 µM
same,TGI,NCI-H522 lung,> 100 µM
same,TGI,NCI/ADR-RES ovarian,> 100 µM
same,TGI,OVCAR-3 ovarian,> 100 µM
same,TGI,OVCAR-4 ovarian,> 100 µM
same,TGI,OVCAR-5 ovarian,> 100 µM
same,TGI,OVCAR-8 ovarian,> 100 µM
same,TGI,PC-3 prostate,> 100 µM
same,TGI,RPMI-8226 leukemia,> 100 µM
same,TGI,RXF 393 renal,> 100 µM
same,TGI,SF-268 CNS,> 100 µM
same,TGI,SF-295 CNS,> 100 µM
same,TGI,SF-539 CNS,> 100 µM
same,TGI,SK-MEL-2 melanoma,> 100 µM
same,TGI,SK-MEL-28 melanoma,> 100 µM
same,TGI,SK-MEL-5 melanoma,> 100 µM
same,TGI,SK-OV-3 ovarian,> 100 µM
same,TGI,SN12C renal,> 100 µM
same,TGI,SNB-19 CNS,> 100 µM
same,TGI,SNB-75 CNS,> 100 µM
same,TGI,SW-620 colon,> 100 µM
same,TGI,T-47D breast,> 100 µM
same,TGI,TK-10 renal,> 100 µM
same,TGI,U251 CNS,> 100 µM
same,TGI,UACC-257 melanoma,> 100 µM
same,TGI,UACC-62 melanoma,> 100 µM
same,TGI,UO-31 renal,> 100 µM
